The results in this text go back to patent publication US9878982B2, “Pyridine derivatives and anti-mycobacterial use thereof” (priority 2014, dated 2018).

In brackets after ≈: the same amount, converted by molar mass. Where two headings read alike, the source gives them in different places. Bounds are passed on as bounds.

Usually IC50 stands for the concentration needed to halve the response being measured. Usually CC50 stands for the concentration giving 50% cytotoxicity.

One data set concerns M. tuberculosis H37R. Briefly: microbe, parasite or virus in culture. Format: cell-based, Mycobacterium tuberculosis. The conditions noted are these: Mycobacterium tuberculosis, H37R; read-out: M. tuberculosis H37R LORA (MIC).
The next data set has as its system Vero Cell. Description: Vero cell cytotoxicity (IC50). Format: cell-based. To be noted: Chlorocebus sabaeus, Vero, African green monkey kidney cells.
A short description of data set [1]: Hela cell cytotoxicity (CC50). The conditions noted are these: human, HeLa cells (human cervical cancer cells), CC50_Hela, half of the toxic concentration.
In another data set the test system is M. tuberculosis H37Rv. Description: In vitro efficacy test using the H37Rv strain, Microplate Alamar Blue Assay (MABA) MIC. The conditions noted are these: for MIC: Mycobacterium tuberculosis, H37RV. It counts as cell-based, Mycobacterium tuberculosis. In general terms: Resazurin is reduced to fluorescent resorufin, in cell work by metabolically active cells.
Data set [2] deals with Mycobacterium smegmatis strain ATCC19420. Description: In vitro efficacy test using Mycobacterium smegmatis strain ATCC19420 (MIC). Format: cell-based. To be noted: Mycolicibacterium smegmatis, ATCC19420, 72 h, CA-MHB + 0.02% Tween 80, 30° C., read after 72 hours.
Where [3] appears, read: aerobic, 7H9 medium, Alamar Blue, read-out: M. tuberculosis H37Rv MABA (MIC).
Setting [4] is: wild-type H37Rv strain, two values per compound, read-out: MABA MIC vs. H37Rv.

As to `COc1ncc(-c2ccc(Br)cc2)cc1C(c1ccc(Cl)cc1)C(O)(CCN(C)C)c1cccc2ccccc12` (stereo not drawn) [Compound 325, 1-(5-(4-bromophenyl)-2-methoxypyridin-3-yl)-1-(4-chlorophenyl)-4-dimethylamino-2-(naphthalen-1-yl)butan-2-ol], the figures for the MIC (in the data set on M. tuberculosis H37R; with M. tuberculosis H37Rv (setting [3]); in data set [2]) were 0.125 µg/mL (≈ 0.203 µM), 0.04 µg/mL and 0.0312 µg/mL, respectively. The concentration for half-maximal inhibition (IC50) in the data set on Vero Cell was over 32 µg/mL. This compound also returned a half-maximal cytotoxic concentration (CC50) in data set [1] of over 64 µg/mL.
For the compound `COc1ncc(-c2ccc(Cl)cc2)cc1C(c1ccccc1)C(O)(CCN(C)C)c1cccc(Cl)c1` (stereo not drawn) [Compound 351, 2-(3-chlorophenyl)-1-(5-(4-chlorophenyl)-2-methoxypyridin-3-yl)-4-(dimethylamino)-1-phenylbutan-2-ol], the MIC in the data set with M. tuberculosis H37R was determined as 0.16 µg/mL (≈ 0.307 µM); in the data set with M. tuberculosis H37Rv (setting [3]) it was 0.11 µg/mL; in data set [2], 0.0156 µg/mL. In addition, the IC50 in the data set with Vero Cell was over 32 µg/mL. Moreover, in data set [1], the CC50 came to 25.5 µg/mL (≈ 48.9 µM).
The matching figures for `COc1ncc(-c2ccc(Br)c(F)c2)cc1C(c1ccccc1)C(O)(CCN(C)C)c1cccc2ccccc12` (stereo not drawn) [Compound 331, 1-(5-(4-bromo-3-fluorophenyl)-2-methoxypyridin-3-yl)-4-(dimethylamino)-2-(naphthalen-1-yl)-1-phenylbutan-2-ol]: 4.07 µg/mL (≈ 6.79 µM), 0.04 µg/mL, 0.0625 µg/mL, over 32 µg/mL and over 64 µg/mL.
`COc1ncc(-c2cscn2)cc1C(c1ccccc1)C(O)(CCN(C)C)c1cccc2ccccc12` (stereo not drawn) [Compound 161, 4-(dimethylamino)-1-(2-methoxy-5-(thiazol-4-yl)pyridin-3-yl)-2-(naphthalen-1-yl)-1-phenylbutan-2-ol]: the MIC worked out at 4.24 µg/mL (≈ 8.32 µM) in the data set with M. tuberculosis H37R, 1.6 µg/mL in the data set on M. tuberculosis H37Rv (setting [3]) and 0.125 µg/mL in data set [2]. Half-maximal inhibition in the data set on Vero Cell (IC50) required 25.1 µg/mL (≈ 49.1 µM). In data set [1], this compound gave a CC50 of 14.4 µg/mL (≈ 28.3 µM).
The matching figures for `COc1ccc(C(c2cc(-c3ccccc3)cnc2OC)C(O)(CCN(C)C)c2ccccc2)cc1` (stereo not drawn) [Compound 237, 4-(dimethylamino)-1-(2-methoxy-5-phenylpyridin-3-yl)-1-(4-methoxyphenyl)-2-phenylbutan-2-ol]: 3.07 µg/mL (≈ 6.36 µM), 1.89 µg/mL, 0.5 µg/mL, 24.3 µg/mL (≈ 50.3 µM) and 15.6 µg/mL (≈ 32.4 µM).
For `COc1ncc(-c2ccc(F)c(F)c2)cc1C(c1ccccc1)C(O)(CCN(C)C)c1cccc2ccccc12` (stereo not drawn) [Compound 347], in that order: 0.51 µg/mL (≈ 0.947 µM), 0.23 µg/mL, 0.0625 µg/mL, over 32 µg/mL and over 64 µg/mL.
Take `COc1ncc(-c2csc(Cl)c2)cc1C(c1ccccc1)C(O)(CCN(C)C)c1cccc2ccccc12` (stereo not drawn) [Compound 245, 1-(5-(5-chlorothiophen-3-yl)-2-methoxypyridin-3-yl)-4-(dimethylamino)-2-(naphthalen-1-yl)-1-phenylbutan-2-ol]: the results for the MIC (in the data set with M. tuberculosis H37R; in the data set with M. tuberculosis H37Rv (setting [3]); in data set [2]) were 1.39 µg/mL (≈ 2.56 µM), 0.86 µg/mL and at most 0.0625 µg/mL, respectively. For the same compound, the IC50 with Vero Cell was over 32 µg/mL. The same compound displayed a CC50 in data set [1] of over 64 µg/mL.
With `COc1ncc(-c2ccc(Br)cc2)cc1C(c1ccccc1)C(O)(CCN(C)C)c1cccc2ccccc12` (stereo not drawn) [Compound 133, 1-(5-(4-bromophenyl)-2-methoxypyridin-3-yl)-4-(dimethylamino)-2-(naphthalen-1-yl)-1-phenylbutan-2-ol], the MIC amounted to 0.22 µg/mL (≈ 0.378 µM) with M. tuberculosis H37R, 0.22 µg/mL with M. tuberculosis H37Rv (setting [3]), 0.12 µM in the data set with M. tuberculosis H37Rv (setting [4]) and 0.0156 µg/mL in data set [2]. In the data set with Vero Cell, this compound returned an IC50 of over 32 µg/mL. The CC50 in data set [1] is over 64 µg/mL. The “inhibitory activity against M. tuberculosis H37Rv, aerobic (MABA) (in words)” value in the data set with M. tuberculosis H37Rv was “comparable to that of the marketed anti-TB drug, Bedaquiline”. Also, in the data set with M. tuberculosis H37Rv (wild-type H37Rv strain, two values per compound), the “MABA MIC vs. H37Rv” value was determined as 0.10 µM.
`COc1ncc(-c2ccsc2Cl)cc1C(c1ccccc1)C(O)(CCN(C)C)c1cccc2ccccc12` (stereo not drawn) [Compound 251, 1-(5-(2-chlorothiophen-3-yl)-2-methoxypyridin-3-yl)-4-(dimethylamino)-2-(naphthalen-1-yl)-1-phenylbutan-2-ol]: the MIC with M. tuberculosis H37R was 1.39 µg/mL (≈ 2.56 µM); in the data set with M. tuberculosis H37Rv (setting [3]) it was 0.64 µg/mL; in data set [2], 0.25 µg/mL. The compound also showed an IC50 with Vero Cell of over 32 µg/mL. The CC50 in data set [1] was over 64 µg/mL.
Consider `COc1ncc(-c2cccc(Br)c2)cc1C(c1ccccc1)C(O)(CCN(C)C)c1cccc2ccccc12` (stereo not drawn) [Compound 129, 1-(5-(3-bromophenyl)-2-methoxypyridin-3-yl)-4-(dimethylamino)-2-(naphthalen-1-yl)-1-phenylbutan-2-ol], for which the values for the MIC (in the data set with M. tuberculosis H37R; in the data set with M. tuberculosis H37Rv (setting [3]); in data set [2]) were 2.57 µg/mL (≈ 4.42 µM), 1.88 µg/mL and 0.5 µg/mL, respectively. Also, the IC50 in the data set on Vero Cell was over 32 µg/mL. This compound yielded a CC50 in data set [1] of over 64 µg/mL.
With `COc1ncc(-c2cncs2)cc1C(c1ccccc1)C(O)(CCN(C)C)c1cccc2ccccc12` (stereo not drawn) [Compound 171, 4-(dimethylamino)-1-(2-methoxy-5-(thiazol-5-yl)pyridin-3-yl)-2-(naphthalen-1-yl)-1-phenylbutan-2-ol], the MIC in the data set with M. tuberculosis H37R worked out at 2.86 µg/mL (≈ 5.61 µM); in the data set on M. tuberculosis H37Rv (setting [3]) it was 1.7 µg/mL; in data set [2], 0.125 µg/mL. In the data set with Vero Cell, half-maximal inhibition (IC50) was put at 25.4 µg/mL (≈ 49.7 µM). Besides, the CC50 in data set [1] worked out at 14.3 µg/mL (≈ 28.2 µM).
For `COc1ncc(-c2cccnc2)cc1C(c1ccccc1)C(O)(CCN(C)C)c1cccc2ccccc12` (stereo not drawn) [Compound 19, 4-(dimethylamino)-1-(6-methoxy-[3,3′-bipyridin]-5-yl)-2-(naphthalen-1-yl)-1-phenylbutan-2-ol], in that order: 3.11 µg/mL (≈ 6.17 µM), 2.85 µg/mL, 0.5 µg/mL, over 50 µg/mL and 10.3 µg/mL (≈ 20.4 µM).
For `COc1ncc(-c2ccsc2)cc1C(c1ccccc1)C(O)(CCN(C)C)c1cccc2ccccc12` (stereo not drawn) [Compound 136, 4-(dimethylamino)-1-(2-methoxy-5-(thiophen-3-yl)pyridin-3-yl)-2-(naphthalen-1-yl)-1-phenylbutan-2-ol], in that order: 0.79 µg/mL (≈ 1.55 µM), 0.35 µg/mL, 0.0312 µg/mL, over 50 µg/mL and over 64 µg/mL.
`COc1ncc(-c2ccc(Cl)cc2)cc1C(c1ccccc1)C(O)(CCN(C)C)c1cccc2ccccc12` (stereo not drawn) [Compound 115, 1-(5-(4-chlorophenyl)-2-methoxypyridin-3-yl)-4-(dimethylamino)-2-(naphthalen-1-yl)-1-phenylbutan-2-ol]: the MIC in the data set on M. tuberculosis H37R came to 0.56 µg/mL (≈ 1.04 µM); in the data set with M. tuberculosis H37Rv (setting [3]) it was 0.08 µg/mL; in the data set with M. tuberculosis H37Rv (setting [4]) it was 0.06 µM; in data set [2], 0.0156 µg/mL. The IC50 in the data set with Vero Cell was over 50 µg/mL. Further, in data set [1], the CC50 was over 64 µg/mL. Besides, in the data set with M. tuberculosis H37Rv, the “inhibitory activity against M. tuberculosis H37Rv, aerobic (MABA) (in words)” value is “comparable to that of the marketed anti-TB drug, Bedaquiline”.
For the compound `COc1ccc(-c2cnc(OC)c(C(c3ccccc3)C(O)(CCN(C)C)c3cccc4ccccc34)c2)cc1` (stereo not drawn) [Compound 299, 4-(dimethylamino)-1-(2-methoxy-5-(4-methoxyphenyl)pyridin-3-yl)-2-(naphthalen-1-yl)-1-phenylbutan-2-ol], the MIC was 0.19 µg/mL (≈ 0.357 µM) in the data set with M. tuberculosis H37R, 0.33 µg/mL in the data set on M. tuberculosis H37Rv (setting [3]) and 0.125 µg/mL in data set [2]. Further, the IC50 with Vero Cell is over 32 µg/mL. In data set [1], this compound showed a CC50 of over 64 µg/mL.
The matching figures for `COc1ncc(-c2ccccc2)cc1C(c1ccccc1)C(O)(CCN(C)C)c1cccc(F)c1F` (stereo not drawn) [Compound 31, 2-(2,3-difluorophenyl)-4-(dimethylamino)-1-(2-methoxy-5-phenylpyridin-3-yl)-1-phenylbutan-2-ol]: 0.46 µg/mL (≈ 0.942 µM), 0.58 µg/mL, 0.25 µg/mL, over 50 µg/mL and 28.1 µg/mL (≈ 57.5 µM).
With `COc1ncc(C2CCOCC2)cc1C(c1ccccc1)C(O)(CCN(C)C)c1cccc2ccccc12` (stereo not drawn) [Compound 75, 4-(dimethylamino)-1-(2-methoxy-5-(tetrahydro-2H-pyran-4-yl)pyridin-3-yl)-2-(naphthalen-1-yl)-1-phenylbutan-2-ol], the MIC with M. tuberculosis H37R came out at 2.73 µg/mL (≈ 5.35 µM); with M. tuberculosis H37Rv (setting [3]) it was 1.32 µg/mL; in data set [2], 0.125 µg/mL. In the data set on Vero Cell, the IC50 is over 50 µg/mL. Also, the CC50 in data set [1] worked out at 22.5 µg/mL (≈ 44 µM).
For `COc1ncc(-c2ccco2)cc1C(c1ccccc1)C(O)(CCN(C)C)c1cccc2ccccc12` (stereo not drawn) [Compound 183, 4-(dimethylamino)-1-(5-(furan-2-yl)-2-methoxypyridin-3-yl)-2-(naphthalen-1-yl)-1-phenylbutan-2-ol], the MIC was 1.33 µg/mL (≈ 2.7 µM) in the data set on M. tuberculosis H37R, 0.5 µg/mL in the data set with M. tuberculosis H37Rv (setting [3]) and at most 0.0625 µg/mL in data set [2]. Besides, the midpoint of inhibition in the data set on Vero Cell, the IC50, lay at 24.5 µg/mL (≈ 49.8 µM). The CC50 in data set [1] is over 64 µg/mL.
For `COc1ncc(-c2ccc(Cl)cc2)cc1C(c1ccccc1)C(O)(CCN(C)C)c1cccc(F)c1` (stereo not drawn) [Compound 297], in that order: 0.74 µg/mL (≈ 1.47 µM), 0.1 µg/mL, 0.0312 µg/mL, over 32 µg/mL and 39.1 µg/mL (≈ 77.5 µM).
The matching figures for `COc1ncc(-c2ccccc2Br)cc1C(c1ccccc1)C(O)(CCN(C)C)c1cccc2ccccc12` (stereo not drawn) [Compound 125, 1-(5-(2-bromophenyl)-2-methoxypyridin-3-yl)-4-(dimethylamino)-2-(naphthalen-1-yl)-1-phenylbutan-2-ol]: 1.89 µg/mL (≈ 3.25 µM), 1.84 µg/mL, 0.5 µg/mL, over 32 µg/mL and over 64 µg/mL.
